± gives the expanded uncertainty stated by the source.
Settings: 298.15 K; Liquid; Gas chromatography

Structure (SMILES) | vapor or sublimation pressure
C[C@@H]1CCC[C@H](C)N1 [2,6-lupetidine, cis-] | 1.576 ± 0.33 kPa
c1ccc(CC2CCNCC2)cc1 [4-benzylpiperidine] | 0.0015 ± 0.0003 kPa
CN[C@@H](C)Cc1ccccc1 [(S)-N-methyl-1-phenylpropan-2-amine] | 0.0375 ± 0.008 kPa
CCCCCCCNCCCCCCC [N-heptyl-1-heptanamine] | 0.00054 ± 0.00011 kPa
CCCCNCCCC [dibutylamine] | 0.383 ± 0.12 kPa
CCCCCCCCNCCCCCCCC [dioctylamine] | 5.6e-05 ± 1.2e-05 kPa
CCCCCNCCCCC [dipentylamine] | 0.041 ± 0.009 kPa
C1CCNCC1 [piperidine] | 3.52 ± 0.75 kPa
